Here are results for two compounds from patent publication US11485993B2, “Therapeutic drug monitoring” (Fastinov S.A., priority 2017, dated 2022).

One test relates to S. aureus ATCC 29213. Put plainly: Flow cytometric measurement of the antimicrobial activity of vancomycin in human serum. Type of test: cell-based. The conditions noted are these: S. aureus ATCC 29213, flow cytometry, FIGS. 5A and 5B. The protocol: Material and Methods. S. aureus ATCC 29213 was incubated for 1 hour with serial concentrations of vancomycin (4 μg/ml to 0.03 μg/ml) in donor drug free human serum and stained with adequate fluorochrome. The intensity of fluorescence and the changes in the scattergram of the bacterial population were recorded after flow cytometry analysis. Twenty samples of serum collected from patients receiving vancomycin were obtained from the biochemistry lab. The vancomycin drug concentrations were analyzed by Architect iVancomycin (Abbott) using the Architect i1000 SR analyzer (Abbott). Architect iVancomycin is an in vitro chemiluminescent microparticle immunoassay (CMIA) for the quantitative measurement of vancomycin in human serum or plasma. In parallel, serum samples were incubated with the S. aureus control strain, after 10 serial dilutions (1:2) and analyzed by flow cytometry (Accury, BD) according the protocol described in Example 1. A flow cytometric template of cell analysis was defined in order to include the majority of the bacterial population. A comparison of the concentrations obtained with the Architect iVancomycin method and with the new flow cytometric method was performed using Student's T test.
A general note: In flow cytometry, cells or beads pass a laser one at a time.

The next test concerns E. coli ATCC 25922. The experiment in a line: Flow cytometric measurement of the antimicrobial activity of colistin in human plasma. It counts as cell-based. The protocol:
Serial dilutions of colistin (Sigma), ranging between 0.008 and 2 μg/ml, were inoculated in human plasma (free of colistin) and incubated with E. coli ATCC 25922 during 60 minutes and afterwards stained with a fluorescent dye and analyzed in a flow cytometer (Accuri, BD) using a protocol previously optimized (FIG. 3): a flow cytometric template of cell analysis was defined in order to include the majority of the bacterial population and at least 20,000 cells are analyzed according size, complexity and intensity of fluorescence on the different fluorescent channels.

On to `CN[C@H](CC(C)C)C(=O)N[C@H]1C(=O)N[C@@H](CC(N)=O)C(=O)N[C@H]2C(=O)N[C@H]3C(=O)N[C@H](C(=O)N[C@H](C(=O)O)c4cc(O)cc(O)c4-c4cc3ccc4O)[C@H](O)c3ccc(c(Cl)c3)Oc3cc2cc(c3O[C@@H]2O[C@H](CO)[C@@H](O)[C@H](O)[C@H]2O[C@H]2C[C@](C)(N)[C@H](O)[C@H](C)O2)Oc2ccc(cc2Cl)[C@H]1O` [vancomycin], for which, in the test with S. aureus ATCC 29213, the “cellular lesion with increasing concentration (reduction of cell density plot, increase of intensity of fluorescence)” value is listed as “a dose effect cellular lesion is evident”. As for colistin, the “morphological changes of the bacterial cell population after serial increasing concentrations” value in the test with E. coli ATCC 25922 (E. coli ATCC 25922, flow cytometry scattergrams) is given as “Morphological changes were evident”. Besides, the “amount of cells at the acquisition gate after incubation with increasing concentrations” value in the test on E. coli ATCC 25922 (E. coli ATCC 25922, flow cytometry, FIG. 4) was “a dose-dependent effect was achieved”.
